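Where inhibition never reached the appropriate level, the endpoint shown equals the highest concentration tested. Otherwise, values were interpolated linearly from a five-concentration, 48-hour dose response in 96-well plates. TGI denotes the concentration required for complete inhibition of growth.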
Tests used:
Assay in all cases: DTP human tumour cell line panel, 48 h
SF-539 CNS = tested on: SF-539 CNS
NCI/ADR-RES ovarian = tested on: NCI/ADR-RES ovarian
U251 CNS = tested on: U251 CNS
HOP-62 NSCLC = tested on: HOP-62 NSCLC
HT29 colon = tested on: HT29 colon
RPMI-8226 leukemia = tested on: RPMI-8226 leukemia
SK-MEL-28 melanoma = tested on: SK-MEL-28 melanoma
NCI-H522 lung = tested on: NCI-H522 lung
OVCAR-3 ovarian = tested on: OVCAR-3 ovarian
SK-MEL-5 melanoma = tested on: SK-MEL-5 melanoma
IGROV1 ovarian = tested on: IGROV1 ovarian
UACC-257 melanoma = tested on: UACC-257 melanoma
HS 578T breast = tested on: HS 578T breast
EKVX NSCLC = tested on: EKVX NSCLC
A498 renal = tested on: A498 renal
SR leukemia = tested on: SR leukemia
SW-620 colon = tested on: SW-620 colon
ACHN renal = tested on: ACHN renal
KM12 colon = tested on: KM12 colon
MDA-MB-435 = tested on: MDA-MB-435
RXF 393 renal = tested on: RXF 393 renal
HCC-2998 colon = tested on: HCC-2998 colon
HOP-92 NSCLC = tested on: HOP-92 NSCLC
HCT-116 colon = tested on: HCT-116 colon
OVCAR-4 ovarian = tested on: OVCAR-4 ovarian
NCI-H23 lung = tested on: NCI-H23 lung
OVCAR-8 ovarian = tested on: OVCAR-8 ovarian
786-0 renal = tested on: 786-0 renal
MDA-MB-231 breast = tested on: MDA-MB-231 breast
MDA-N = tested on: MDA-N
OVCAR-5 ovarian = tested on: OVCAR-5 ovarian
DU-145 prostate = tested on: DU-145 prostate
SF-295 CNS = tested on: SF-295 CNS
UO-31 renal = tested on: UO-31 renal
HCT-15 colon = tested on: HCT-15 colon
SF-268 CNS = tested on: SF-268 CNS
CCRF-CEM leukemia = tested on: CCRF-CEM leukemia
SK-OV-3 ovarian = tested on: SK-OV-3 ovarian
TK-10 renal = tested on: TK-10 renal
PC-3 prostate = tested on: PC-3 prostate
LOX IMVI melanoma = tested on: LOX IMVI melanoma
NCI-H460 lung = tested on: NCI-H460 lung
MCF7 breast = tested on: MCF7 breast
K-562 leukemia = tested on: K-562 leukemia
NCI-H226 lung = tested on: NCI-H226 lung
HL-60(TB) leukemia = tested on: HL-60(TB) leukemia
MOLT-4 leukemia = tested on: MOLT-4 leukemia
CAKI-1 renal = tested on: CAKI-1 renal
M14 melanoma = tested on: M14 melanoma
SK-MEL-2 melanoma = tested on: SK-MEL-2 melanoma
T-47D breast = tested on: T-47D breast
SN12C renal = tested on: SN12C renal
A549 NSCLC = tested on: A549 NSCLC
COLO 205 colon = tested on: COLO 205 colon
MALME-3M melanoma = tested on: MALME-3M melanoma
UACC-62 melanoma = tested on: UACC-62 melanoma
SNB-75 CNS = tested on: SNB-75 CNS

With CC1=NN(c2nc(N)nc(/C(C#N)=C\C3COc4ccccc4C3=O)n2)C(C)(C)C1 (stereo not drawn) the TGI (SF-539 CNS) was > 100 µM, the TGI (NCI/ADR-RES ovarian) was 35.9 µM and the TGI (U251 CNS) was > 100 µM. For the same compound, the TGI (HOP-62 NSCLC) was > 100 µM, the TGI (HT29 colon) was 69 µM and the TGI (RPMI-8226 leukemia) was 54.8 µM. For the same compound, the TGI (SK-MEL-28 melanoma) was > 100 µM, the TGI (NCI-H522 lung) was > 100 µM and the TGI (OVCAR-3 ovarian) was > 100 µM. The TGI (SK-MEL-5 melanoma) was > 100 µM, the TGI (IGROV1 ovarian) was > 100 µM and the TGI (UACC-257 melanoma) was > 100 µM. For the same compound, the TGI (HS 578T breast) was 85 µM, the TGI (EKVX NSCLC) was > 100 µM and the TGI (A498 renal) was 63 µM. For the same compound, the TGI (SR leukemia) was 46.1 µM, the TGI (SW-620 colon) was > 100 µM and the TGI (ACHN renal) was 93.7 µM. For the same compound, the TGI (KM12 colon) was > 100 µM, the TGI (MDA-MB-435) was > 100 µM and the TGI (RXF 393 renal) was 64.4 µM. For the same compound, the TGI (HCC-2998 colon) was > 100 µM, the TGI (HOP-92 NSCLC) was > 100 µM and the TGI (HCT-116 colon) was 75 µM. The TGI (OVCAR-4 ovarian) was > 100 µM, the TGI (NCI-H23 lung) was 90.5 µM and the TGI (OVCAR-8 ovarian) was > 100 µM. For the same compound, the TGI (786-0 renal) was > 100 µM, the TGI (MDA-MB-231 breast) was > 100 µM and the TGI (MDA-N) was 84.6 µM. The TGI (OVCAR-5 ovarian) was > 100 µM, the TGI (DU-145 prostate) was > 100 µM and the TGI (SF-295 CNS) was > 100 µM. The TGI (UO-31 renal) was 96.8 µM, the TGI (HCT-15 colon) was > 100 µM and the TGI (SF-268 CNS) was > 100 µM. The TGI (CCRF-CEM leukemia) was > 100 µM, the TGI (SK-OV-3 ovarian) was 84.7 µM and the TGI (TK-10 renal) was > 100 µM. The TGI (PC-3 prostate) was 77.7 µM, the TGI (LOX IMVI melanoma) was > 100 µM and the TGI (NCI-H460 lung) was > 100 µM. For the same compound, the TGI (MCF7 breast) was > 100 µM, the TGI (K-562 leukemia) was > 100 µM and the TGI (NCI-H226 lung) was > 100 µM. The TGI (HL-60(TB) leukemia) was 5.2 µM, the TGI (MOLT-4 leukemia) was 64 µM and the TGI (CAKI-1 renal) was > 100 µM. The TGI (M14 melanoma) was > 100 µM, the TGI (SK-MEL-2 melanoma) was 42.3 µM and the TGI (T-47D breast) was 69.1 µM.

For Cc1cc(C)c(OC(=O)Nc2cccc3ccccc23)c(-c2ccccc2)c1, the TGI (SF-539 CNS) was > 100 µM, the TGI (NCI/ADR-RES ovarian) was > 100 µM and the TGI (U251 CNS) was > 100 µM. The TGI (SN12C renal) was > 100 µM, the TGI (A549 NSCLC) was > 100 µM and the TGI (HOP-62 NSCLC) was > 100 µM. For the same compound, the TGI (HT29 colon) was > 100 µM, the TGI (RPMI-8226 leukemia) was > 100 µM and the TGI (SK-MEL-28 melanoma) was > 100 µM. For the same compound, the TGI (OVCAR-3 ovarian) was > 100 µM, the TGI (SK-MEL-5 melanoma) was 34.6 µM and the TGI (COLO 205 colon) was > 100 µM. For the same compound, the TGI (IGROV1 ovarian) was > 100 µM, the TGI (HS 578T breast) was > 100 µM and the TGI (MALME-3M melanoma) was > 100 µM. The TGI (EKVX NSCLC) was > 100 µM, the TGI (SR leukemia) was > 100 µM and the TGI (SW-620 colon) was > 100 µM. For the same compound, the TGI (ACHN renal) was 94.9 µM, the TGI (KM12 colon) was > 100 µM and the TGI (MDA-MB-435) was 82.2 µM. The TGI (HCC-2998 colon) was 91.8 µM, the TGI (HOP-92 NSCLC) was 78.6 µM and the TGI (UACC-62 melanoma) was > 100 µM. The TGI (HCT-116 colon) was > 100 µM, the TGI (OVCAR-4 ovarian) was > 100 µM and the TGI (NCI-H23 lung) was > 100 µM. The TGI (OVCAR-8 ovarian) was > 100 µM, the TGI (786-0 renal) was > 100 µM and the TGI (MDA-MB-231 breast) was > 100 µM. The TGI (MDA-N) was > 100 µM, the TGI (OVCAR-5 ovarian) was > 100 µM and the TGI (DU-145 prostate) was > 100 µM. The TGI (SF-295 CNS) was > 100 µM, the TGI (UO-31 renal) was 26.8 µM and the TGI (HCT-15 colon) was > 100 µM. For the same compound, the TGI (SF-268 CNS) was 80.1 µM, the TGI (CCRF-CEM leukemia) was > 100 µM and the TGI (SK-OV-3 ovarian) was > 100 µM. The TGI (TK-10 renal) was > 100 µM, the TGI (PC-3 prostate) was > 100 µM and the TGI (LOX IMVI melanoma) was > 100 µM. For the same compound, the TGI (NCI-H460 lung) was > 100 µM, the TGI (MCF7 breast) was > 100 µM and the TGI (K-562 leukemia) was > 100 µM. The TGI (NCI-H226 lung) was 58.4 µM, the TGI (HL-60(TB) leukemia) was > 100 µM and the TGI (SNB-75 CNS) was 47.4 µM. The TGI (MOLT-4 leukemia) was 37.3 µM, the TGI (CAKI-1 renal) was 93 µM and the TGI (M14 melanoma) was > 100 µM. For the same compound, the TGI (T-47D breast) was > 100 µM.

Source: PubChem BioAssay (NCI)
